The test system of the first experiment is MOLM13 cells. Briefly: Growth inhibition of CDK9-positive cell line MOLM13 in vitro (CCK8/MTT assay). It is filed as cell-based, human. The note with it: Homo sapiens, MOLM-13, read-out: IC50 of the compound for inhibiting cell growth, MOLM13 cells. On the procedure:
1. MOLM13 cell line and cell culture MOLM13 is a CDK9-positive human acute myeloid leukemia cell line from DMSZ. Suspension culture was carried out in RPMI1640 (Gibco) medium with 10% fetal bovine serum (Gibco), 1% penicillin-streptomycin and 2 mM glutamine.
Suspended MOLM-13 cells in logarithmic growth phase were collected by centrifugation (1700 rpm, 3 minutes), the supernatant was discarded, and the cells were counted. A solution with a cell concentration of 2×10^5 cells per milliliter was formulated and inoculated in a 96-well plate (Corning) with 100 microliters per well. The plate was incubated at 37° C., 5% CO2 overnight. On the next day, the test compound was added to the cultured cells in two parallel wells. […]
The present compound and the control compounds were respectively dissolved in DMSO (Sigma).
When the solvent control well became dark yellow, the OD450 nm absorption value was measured, and the cell growth rate was calculated according to the following formula. Cell growth rate %=100*(T−T0)/(C−T0), wherein T=the optical density value of the drug-treated well—the optical density value of the blank control well, T0=the optical density value of the well before drug treatment—the optical density value of the blank control well, C=the optical density value of the solvent control well—the optical density value of the blank control well. […] The assay was repeated three times, and the data was subjected to a biological statistical analysis.
In the case of `CN1CCN(c2cccc(Nc3ncc(Cl)c(-n4cc(C(N)=O)c5ccccc54)n3)c2)CC1` [Compound 118, 1-{5-chloro-2-[3-(4-methyl-piperazin-1-yl)-phenylamino]-pyrimidin-4-yl}-1H-indole-3-carboxamide], the IC50 fell in the range of 1 to 10 nM.

Staying with this experiment, now noted: Homo sapiens, MOLM-13; MOLM13 cells, cultured 3 to 6 days, CCK8; read-out: IC50 of the compound for inhibiting cell growth, MOLM13 cells.
On to `CNC(=O)c1cn(-c2ccnc(Nc3ccc(N4CCNCC4)cc3Cl)n2)c2ccccc12` [Compound 102, 1-[2-(2-chloro-4-piperazin-1-yl-phenylamino)-pyrimidin-4-yl]-1H-indole-3-carboxmethylamide], for which the IC50 was greater than 1000 nM.

Turning to `COc1ccc2c(c1)c(C(N)=O)cn2-c1ccnc(Nc2ccc(N3CCNCC3)cc2)n1` [Compound 33, 5-methoxy-1-[2-(4-piperazin-1-yl-phenylamino)-pyrimidin-4-yl]-1H-indole-3-carboxamide], the IC50 lay in the range of 1 to 10 nM. For `CN1CCN(c2ccc(Nc3nccc(-n4cc(C(N)=O)c5ccccc54)n3)cc2)CC1` [Compound 45, 1-{2-[4-(4-methyl-piperazin-1-yl)-phenylamino]-pyrimidin-4-yl}-1H-indole-3-carboxamide], the 50% inhibitory concentration (IC50) is 10 to 100 nM. The same measure, in the same setting: in the case of `NC(=O)c1cn(-c2nc(Nc3cccc(N4CCOCC4)c3)ncc2F)c2ccccc12` [Compound 137, 1-[5-fluoro-2-(3-morpholin-4-yl-phenylamino)-pyrimidin-4-yl]-1H-indole-3-carboxamide] it was 1 to 10 nM; in that of `NC(=O)c1cn(-c2ccnc(Nc3ccc(N4CCOCC4)cc3)n2)c2ccccc12` [Compound 70, 1-[2-(4-morpholin-4-yl-phenylamino)-pyrimidin-4-yl]-1H-indole-3-carboxamide], 10 to 100 nM; in that of `NC(=O)c1cn(-c2ccnc(Nc3ccc(NCCN4CCCCC4)cc3)n2)c2ccccc12` [Compound 10, 1-{2-[4-(2-piperidin-1-yl-ethylamino)-phenylamino]-pyrimidin-4-yl}-1H-indole-3-carboxamide], 10 to 100 nM. Still for that read-out and setting: in the case of `CN(CCN1CCCC1)c1ccc(Nc2ncc(Cl)c(-n3cc(C(N)=O)c4ccccc43)n2)cc1` [Compound 94, 1-(5-chloro-2-{4-[methyl-(2-pyrrolidin-1-yl-ethyl)-amino]-phenylamino}-pyrimidin-4-yl)-1H-indole-3-carboxamide] it was 1 to 10 nM. In the case of `CCC(=O)N1CCN(c2cccc(Nc3nccc(-n4cc(C(N)=O)c5ccccc54)n3)c2)CC1` [Compound 128, 1-{2-[3-(4-propionyl-piperazin-1-yl)-phenylamino]-pyrimidin-4-yl}-1H-indole-3-carboxamide], the IC50 was in the range of 10 to 100 nM. Consider `NC(=O)c1cn(-c2nc(Nc3cccc(N4CCN(CC5CCOCC5)CC4)c3)ncc2F)c2ccccc12` [Compound 157, 1-(5-fluoro-2-{3-[4-(tetrahydro-pyran-4-ylmethyl)-piperazin-1-yl]-phenylamino}-pyrimidin-4-yl)-1H-indole-3-carboxamide], for which the IC50 was 10 to 100 nM. With `NC(=O)c1cn(-c2ccnc(Nc3ccccn3)n2)c2ccccc12` [Compound 130, 1-[2-(pyridin-2-ylamino)-pyrimidin-4-yl]-1H-indole-3-carboxamide], the IC50 is greater than 1000 nM.

`NC(=O)c1cn(-c2ccnc(Nc3ccc(N4CCN(CCO)CC4)cc3)n2)c2ccccc12` [Compound 25, 1-(2-{4-[4-(2-hydroxy-ethyl)-piperazin-1-yl]-phenylamino}-pyrimidin-4-yl)-1H-indole-3-carboxamide]: the IC50 was 10 to 100 nM. `Cc1cc(C)nc(Nc2nccc(-n3cc(C(N)=O)c4ccccc43)n2)c1` [Compound 132, 1-[2-(4,6-dimethyl-pyridin-2-ylamino)-pyrimidin-4-yl]-1H-indole-3-carboxamide]: the IC50 was greater than 1000 nM.

`CN1CCN(c2cc(Nc3ncc(F)c(-n4cc(C(N)=O)c5ccccc54)n3)ccc2F)CC1` [Compound 116, 1-{5-fluoro-2-[4-fluoro-3-(4-methyl-piperazin-1-yl)-phenylamino]-pyrimidin-4-yl}-1H-indole-3-carboxamide]: the IC50 was 10 to 100 nM. For the compound `NC(=O)c1cn(-c2nc(Nc3cccc(N4CCN(CC5CO5)CC4)c3)ncc2F)c2ccccc12` (centres unmarked) [Compound 156, 1-{5-fluoro-2-[3-(4-oxiranylmethyl-piperazin-1-yl)-phenylamino]-pyrimidin-4-yl}-1H-indole-3-carboxamide], the half-inhibitory concentration (IC50) is 10 to 100 nM. Consider `CN1CCN(c2ccc(Nc3ncc(F)c(-n4cc(C(N)=O)c5ccccc54)n3)cc2)CC1` [Compound 52, 1-{5-fluoro-2-[4-(4-methyl-piperazin-1-yl)-phenylamino]-pyrimidin-4-yl}-1H-indole-3-carboxamide], for which the IC50 lay within 1 to 10 nM. Consider `NC(=O)c1cn(-c2ccnc(Nc3cccc(F)c3Cl)n2)c2ccccc12` [Compound 3, 1-[2-(2-chloro-3-fluoro-phenylamino)-pyrimidin-4-yl]-1H-indole-3-carboxamide], for which the concentration for half-maximal inhibition (IC50) was greater than 1000 nM. For the compound `NC(=O)c1cn(-c2ccnc(Nc3cc(F)cc(C(F)(F)F)c3)n2)c2ccccc12` [Compound 4, 1-[2-(3-fluoro-5-trifluoromethyl-phenylamino)-pyrimidin-4-yl]-1H-indole-3-carboxamide], the IC50 was greater than 1000 nM. On to `COc1cc(F)c([N+](=O)[O-])cc1Nc1nccc(-n2cc(C(N)=O)c3ccccc32)n1` [Compound 7, 1-[2-(4-fluoro-2-methoxy-5-nitro-phenylamino)-pyrimidin-4-yl]-1H-indole-3-carboxamide], for which the IC50 lay in the range of 10 to 100 nM.

As to `NC(=O)c1cn(-c2ccnc(Nc3ccc(CN4CCOCC4)cc3)n2)c2ccccc12` [Compound 14, 1-[2-(4-morpholin-4-methyl-phenylamino)-pyrimidin-4-yl]-1H-indole-3-carboxamide], the IC50 was in the range of 10 to 100 nM. As for `NC(=O)c1cn(-c2nc(Nc3ccc(N4CCNCC4)cn3)ncc2Cl)c2ccccc12` [Compound 134, 1-[5-chloro-2-(5-piperazin-1-yl-pyridin-2-ylamino)-pyrimidin-4-yl]-1H-indole-3-carboxamide], the half-maximal inhibitory concentration (IC50) was greater than 1000 nM. Regarding `NC(=O)c1cn(-c2ccnc(Nc3ccc(N4CCNCC4)cc3)n2)c2ncccc12` [Compound 135, 1-[2-(4-piperazin-1-yl-phenylamino)-pyrimidin-4-yl]-1H-pyrrolo[2,3-b]pyridine-3-carboxamide], the IC50 was in the range of 100 to 1000 nM. As for `CN(C)CCN(C)c1ccc(Nc2ncc(Cl)c(-n3cc(C(N)=O)c4ccccc43)n2)cc1` [Compound 85, 1-(5-chloro-2-{4-[(2-dimethylamino-ethyl)-methyl-amino]-phenylamino}-pyrimidin-4-yl)-1H-indole-3-carboxamide], the IC50 was in the range of 1 to 10 nM. On the same count and under the same terms, next, `CCN1CCN(c2ccc(Nc3ncc(F)c(-n4cc(C(N)=O)c5ccccc54)n3)cc2C)CC1` [Compound 57, 1-{2-[4-(4-ethyl-piperazin-1-yl)-3-methyl-phenylamino]-5-fluoro-pyrimidin-4-yl}-1H-indole-3-carboxamide]: 1 to 10 nM. Consider `NC(=O)c1cn(-c2ccnc(Nc3ccc(NCCN4CCOCC4)cc3)n2)c2ccccc12` [Compound 9, 1-{2-[4-(2-morpholin-4-yl-ethylamino)-phenylamino]-pyrimidin-4-yl}-1H-indole-3-carboxamide], for which the half-inhibitory concentration (IC50) was in the range of 10 to 100 nM. Still for that read-out and setting: in the case of `CN(CCN1CCCC1)c1ccc(Nc2nccc(-n3cc(C(N)=O)c4ccccc43)n2)cc1` [Compound 90, 1-(2-{4-[methyl-(2-pyrrolidin-1-ylethyl)-amino]-phenylamino}-pyrimidin-4-yl)-1H-indole-3-carboxamide] it was 1 to 10 nM.

Source of the values: patent US20210101881A1 (Ancureall Pharmaceutical (Shanghai) Co., Ltd., priority 2018, published 2021).
